Results on one substance are retold here after patent publication US20030211075A1 (priority 2001, published 2003).

For experiment [1], the system named is 3LL mouse lung carcinoma. In words: In vivo tumor thrombosis, 3LL. Particulars: large (>800 mm^3) tumors. An excerpt:
Tumor test systems were of four types: i) 3LL mouse lung carcinoma growing subcutaneously in C57BL/6 mice; ii) C1300 mouse neuroblastoma growing subcutaneously in BALB/c nu/nu mice; iii) HT29 human colorectal carcinoma growing subcutaneously in BALB/c nu/nu mice; and iv) C1300 Muγ mouse neuroblastoma growing subcutaneously in BALB/c nu/nu mice. The C1300 Muγ tumor is an interferon-y secreting transfectant derived from the C 1300 tumor (Watanabe et al., 1989).
To establish tumors, 10^6 to 1.5×10^7 tumor cells were injected subcutaneously into the right anterior flank of the mice. When tumors had grown to various sizes, mice were randomly assigned to different study groups. […] Fab′, or bispecific antibody. Other mice received equivalent quantities IgG, Fab′ or bispecific antibody alone. The injections were performed slowly into one of the tail veins over approximately 45 seconds, usually followed by 200 μl of saline.
Twenty-four hours after being injected with tTF or immunoglobulin-tTF conjugates, the mice were anesthetized with metophane and were exsanguinated by perfusion with heparinized saline. Tumors and normal tissues were excised and immediately fixed in 3% (v/v) formalin. Paraffin sections were cut and stained with hematoxylin and eosin. Blood vessels having open lumens containing erythrocytes and blood vessels containing thrombi were counted. […]

The test system of experiment [2] is F9 sarcoma. The experiment in a line: F9 sarcoma mouse model, tumor tissue necrosis. Particulars: tTF 4 μg, endotoxin 0.5 μg; three days; spontaneous necrosis 40-50%. It is filed as in vivo. As for the experimental part:
1×10^7 F9 sarcoma cells were injected subcutaneously into the right flank of balb/c nude mice. Subcutanous tumors were measured with a caliper in three perpendicular directions a, b, and c and volumes calculated according to the formula V=π/6×a×b×c. Treatment was initiated when subcutaneous tumors reached a size of 150 to 300 μl.
Reagents were administered into the lateral tail vein.
Mice were closely observed after treatment for clinical signs of toxicity and clinical status was documented at defined time points. Three days after treatment, mice were sacrificed and tumors were harvested. Paraffin embedded tissues were stained with hematoxilin and eosin (H&E). Tissue sections were analyzed on a light microscope by two independent investigators and histological findings were documented. Tumor sections with necrotic areas were scanned with a GS-700 imaging densitometer (Biorad, Hercules, Calif.) and areas of necrosis were calculated as % of total section area.

The subject of experiment [3] is L540 human Hodgkin's disease tumors. In words: Treatment of L540rec tumor-bearing SCID mice with tTF and/or endotoxin, tumor tissue necrosis by densitometry. It is filed as in vivo, mouse. Particulars: for % tumor necrosis: tTF alone (4 μg; 4 μg or 16 μg), no endotoxin, three days after i.v. treatment; for anti-tumor effect: tTF alone. As to the method:
For in vivo studies, a metastasizing mouse model for human Hodgkin's lymphoma was used. 1×10^7 L540rec cells were injected subcutaneously into the right flank of SCID mice resulting in a subcutaneous tumor with lymph node metastases in the regional lymph node stations. Subcutanous tumors were measured with a caliper in three perpendicular directions a, b, and c, and volumes calculated according to the formula V=π/6×a×b×c.
Treatment was initiated when subcutaneous tumors reached a size of 150 to 300 μl. Reagents were administered into the lateral tail vein.
Mice were closely observed after treatment for clinical signs of toxicity and clinical status was documented at defined time points (5 minutes, 10 minutes, 15 minutes, 30 minutes. 1 hour. 2 hours, 24 hours, 48 hours, 72 hours). Blood samples were taken from the tail vein at 1 hour, 2 hours and 24 hours to measure TNFα blood levels. Three days after treatment, the mice were anesthetized, blood samples were taken from the vena cava for coagulation tests, and an autopsy was performed to document any changes in gross pathology. Tumors, lymph node metastases and the major normal organs (heart, lung, brain, liver, kidney, colon, spleen, pancreas) were harvested and prepared for histological analysis.
Tissue samples harvested at the time of autopsy were fixed in 3% NBF (normal buffered formalin) and embedded in paraffin wax. Tissue blocs were cut, dewaxed and stained with hematoxilin and eosin (H&E). Tissue sections were analyzed on a light microscope by two independent investigators and histological findings were documented. Tumor sections with necrotic areas were scanned with a GS-700 imaging densitometer (Biorad, Hercules, Calif.) and areas of necrosis were calculated as % of total section area. Statistical Analysis was performed using SPSS software (SPSS Science Software, Erkrath, Germany) applying the Mann-Whitney-U-test for ungrouped data.

In the case of “tTF: extracellular domain of the mature Tissue Factor protein (amino acid 1-219), recombinant truncated human Tissue Factor”, the “tumor vessels thrombosed, average” value in experiment [1] came to 62%. The tumor tissue necrosis in experiment [2] turned out to be 45%. For the same substance, the figures for the “% tumor necrosis” value in experiment [3], in experiment [3] (listed as TTF) and in experiment [3] (listed as endotoxin-free tTF) were 0%, 4% and 0%, respectively. For the same substance, the anti-tumor effect entry in experiment [3] (4 μg to 16 μg) is “no anti-tumor effect”; in experiment [3] (100 μg) it was “anti-tumor effects begin to appear”.
